In US4414204A, “Antibiotic preparations having increased effectiveness, processes for their manufacture and method for increasing the antibiotic action of antibiotics” (Ciba-Geigy Corporation, priority 1979, dated 1983):

Assays:
Format in all cases: in vivo
[1] = system: Klebsiella pneumoniae; assay: Mice infected i.p. with Klebsiella pneumoniae, treated s.c. with cefroxadin alone or with muramylpeptide; survival, ED50; conditions: 2×10^4 cfu Klebsiella pneumoniae i.p., cefroxadin twice s.c. (0 and 3 h after infection) with 10 mg/kg N-acetylmuramyl-L-alanyl-D-isoglutaminyl-L-alanyl-2-(1',2'-dipalmitoyl-sn-glycero-3'-hydroxyphosphoryloxy)-ethylamide, survivors counted 4 and 10 days after infection
Description: (§1) For this purpose, animals are infected with a lethal or sub-lethal dose of a pathogenic micro-organism and then the specified novel preparation of the individual doses of muramylpeptide and antibiotic are administered. The action is determined as ED50, that is to say, the dose at which 50% of the animals survive.
(§2) Laboratory white mice are infected i.p. with 2×10^4 cfu (colony forming units) of Klebsiella pneumoniae, 0.1×10^4 cfu of Pasteurella multocida or 40×10^4 cfu of Salmonella typhimurium in salt solution so that 90 to 100% of the untreated control animals die within 48 hours. Immediately after infection and 3 hours after infection, groups of 10 mice are treated with cefroxadin, both alone (without muramylpeptide) and in combination with 10 mg/kg of N-acetylmuramyl-L-alanyl-D-isoglutaminyl-L-alanyl-2-(1',2'-dipalmitoyl-sn- glycero-3'-hydroxyphosphoryloxy)-ethylamide, these being administered twice subcutaneously in the form of aqueous solutions or suspensions. A count of the surviving animals was made 4 and 10 days after infection.

[2] = system: Pasteurella multocida; assay: Mice infected i.p. with Pasteurella multocida, treated s.c. with cefroxadin alone or with muramylpeptide; survival, ED50; conditions: 0.1×10^4 cfu Pasteurella multocida i.p., cefroxadin twice s.c. (0 and 3 h after infection) with 10 mg/kg N-acetylmuramyl-L-alanyl-D-isoglutaminyl-L-alanyl-2-(1',2'-dipalmitoyl-sn-glycero-3'-hydroxyphosphoryloxy)-ethylamide, survivors counted 4 and 10 days after infection
Description: as §1, §2

[3] = system: Salmonella typhimurium; assay: Mice infected i.p. with Salmonella typhimurium, treated s.c. with cefroxadin alone or with muramylpeptide; survival, ED50; conditions: 40×10^4 cfu Salmonella typhimurium i.p., cefroxadin twice s.c. (0 and 3 h after infection) with 10 mg/kg N-acetylmuramyl-L-alanyl-D-isoglutaminyl-L-alanyl-2-(1',2'-dipalmitoyl-sn-glycero-3'-hydroxyphosphoryloxy)-ethylamide, survivors counted 4 and 10 days after infection
Description: as §1, §2

Measured: ED50 values for the antibiotic in combination with the muramylpeptide versus alone

COC1=C(C(=O)O)N2C(=O)[C@@H](NC(=O)[C@H](N)C3=CCC=CC3)[C@H]2SC1 [cefroxadin, 7β-[D-2-amino-2-(1,4-cyclohexadienyl)-acetamido]-3-methoxy-3-cephem-4-carboxylic acid]
lower by a multiple: all assays above
